Source: patent US20090117115A1 (priority 2006, published 2009)

Legend:
[1] = tested on: gp120 hydrolysis by salivary IgA and serum IgA; assay type: biochemical, human
[2] = target: gp120 of HIV-1 strain BR004 (HIV-1, strain BR004)
[3] = target: gp120 of HIV-1 strain SF162 (HIV-1, strain SF162)
[4] = target: gp120 of HIV-1 strain ZA009 (HIV-1, strain ZA009)

Compound | inhibition of gp120 hydrolysis by serum and salivary IgA [1] | IC80, HIV neutralization (% decrease of p24; PHA-stimulated PBMC hosts) [2] [µg/mL] | IC80, HIV neutralization (% decrease of p24; PHA-stimulated PBMC hosts) [3] [µg/mL] | IC80, HIV neutralization (% decrease of p24; PHA-stimulated PBMC hosts) [4] [µg/mL]
pepstatin A | did not detectably inhibit | – | – | –
c1cnc2c(c1)ccc1cccnc12 [1,10 phenanthroline] | did not detectably inhibit | – | – | –
NC(=O)CI [iodoacetamide] | did not detectably inhibit | – | – | –
O=C(O)CN(CCN(CC(=O)O)CC(=O)O)CC(=O)O [EDTA] | did not detectably inhibit | – | – | –
MAb b12 (antibody) | – | > 20 | 14.1 | > 20
